# Reference: patent US20180338980A1, “AROMATIC SULFONAMIDE DERIVATIVES” (BAYER PHARMA AKTIENGESELLSCHAFT, priority 2015, published 2018)
# How the values were obtained:
# Format in all cases: cell-based
# [1] = target: T1, mouse P2X4 receptors (Mus musculus, UniProt Q9JJX6); test: Assay B: mouse P2X4 receptor cell line, Fluo8 fluorescence FLIPR (agonist Bz-ATP at EC50); conditions: HEK mouse P2X4 cell line, agonist Bz-ATP at EC50, average
# T1 construct: host or cells: HEK 293 (recombinant, constitutively expressing)
# T1 sequence (Q9JJX6 1-388): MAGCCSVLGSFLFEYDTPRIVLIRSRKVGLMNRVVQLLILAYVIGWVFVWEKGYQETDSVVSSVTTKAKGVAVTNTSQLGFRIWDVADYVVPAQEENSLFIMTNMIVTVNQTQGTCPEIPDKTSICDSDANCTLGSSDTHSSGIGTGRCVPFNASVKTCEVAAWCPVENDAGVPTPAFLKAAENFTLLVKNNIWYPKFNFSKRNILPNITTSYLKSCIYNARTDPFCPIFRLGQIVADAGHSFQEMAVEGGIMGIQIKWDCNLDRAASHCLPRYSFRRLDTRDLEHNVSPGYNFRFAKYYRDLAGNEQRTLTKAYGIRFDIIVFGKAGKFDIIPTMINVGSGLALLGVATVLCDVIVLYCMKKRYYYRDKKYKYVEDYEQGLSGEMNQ
# Description: The identification of agonists and antagonists of the P2X4 receptor from humans and […] also the quantification of the activity of the compounds of the invention was performed by use of recombinant cell lines. […] The test cell lines constitutively express the mouse or human P2X4 receptors. Stimulation of the receptors with an agonist leads to a conformational change of P2X4 and influx of extracellular calcium ions through the ion channel. The cytoplasmatic calcium transient is detected via the calcium sensitive dye Fluo8 for the mouse P2×4 cell line or in case of the human P2×4 cell line a stably expressed calcium-sensitive photoprotein, mitochondrial photina, which, after reconstitution with the cofactor coelenterazine, emits light in dependence of calcium binding [Bovolenta S, Foti M, Lohmer S, Corazza S., J Biomol Screen. […] The strength of Fluo8 fluorescence signal or photina luminescence signal corresponds to the level of receptor activation. An inhibitor would decrease the signal depending on its potency and concentration.
# On the day of the assay medium is exchanged by Fluo8 containing buffer for 30 minutes. In the fluorescence reader (FLIPR) test substances in various concentrations are added for 10 minutes. After baseline measurement the agonist Bz-ATP at EC50 concentration is applied and fluorescence is measured immediately.
# [2] = target: T2, P2X4 (Homo sapiens, UniProt Q99571); test: Assay A: human P2X4 receptor cell line, FLIPR calcium assay (Fluo-8, agonist Bz-ATP at EC80); set-up: host or cells: HEK 293 (recombinant, constitutively expressing; with mitochondrial photina in Assay B); conditions: HEK human P2X4 cells, Fluo-8 FLIPR; for IC50: Bz-ATP at EC80, average values; for Emax: percentage of maximal inhibition, read-out: human P2X4 Assay A avg Efficacy
# T2 sequence (Q99571 1-388): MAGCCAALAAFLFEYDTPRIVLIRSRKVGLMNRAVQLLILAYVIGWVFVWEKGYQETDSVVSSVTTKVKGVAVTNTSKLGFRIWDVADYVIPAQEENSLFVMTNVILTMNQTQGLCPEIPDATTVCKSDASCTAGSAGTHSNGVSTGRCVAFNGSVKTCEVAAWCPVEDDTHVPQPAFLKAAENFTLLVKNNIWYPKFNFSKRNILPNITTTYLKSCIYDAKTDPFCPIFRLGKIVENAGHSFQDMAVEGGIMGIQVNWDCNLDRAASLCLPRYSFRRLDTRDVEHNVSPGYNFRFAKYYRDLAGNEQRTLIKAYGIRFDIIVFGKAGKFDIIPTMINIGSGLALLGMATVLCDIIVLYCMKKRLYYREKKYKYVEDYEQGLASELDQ
# How it was run: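 HEK cells expressing human P2X4 (20,000/well, plated ~20 h earlier) loaded 30 min with 5 μM Fluo-8 in HBSS/HEPES buffer with 1.8 mM CaCl2, 1 mM MgCl2, 2 mM probenecid, pH 7.4. Antagonist preincubated 30 min at room temperature (0.5% DMSO), then Bz-ATP at EC80. Peak fluorescence over 120 s, normalized to DMSO; triplicate IC50 and Hill fits.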
# [3] = target: T2, P2X4; test: Assay B: human P2X4 receptor cell line, mitochondrial photina luminescence (agonist Bz-ATP at EC50); set-up: host or cells: HEK 293 (recombinant, constitutively expressing; with mitochondrial photina in Assay B); conditions: HEK human P2X4 cell line, photina luminescence, agonist Bz-ATP at EC50, average; for Emax: read-out: human P2X4 Assay B avg Efficacy
# How it was run: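 Recombinant cell line constitutively expressing human P2X4 and mitochondrial photina photoprotein, reconstituted with coelenterazine. Receptor stimulated with Bz-ATP at EC50; calcium influx read immediately as luminescence.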
IC50 [1] [nM],mouse P2X4 Assay B avg Efficacy [1] [%],IC50 [2] [nM],Emax [2] [%],IC50 [3] [nM],Emax [3] [%],Compound
1240,44,20,70,43,56,"NS(=O)(=O)c1cc(NC(=O)Cc2ccccc2Cl)ccc1Oc1ccc(F)cc1 [Example 012, 2-(2-chlorophenyl)-N-[4-(4-fluorophenoxy)-3-sulfamoylphenyl]acetamide]"
> 16000,31,–,93,–,71,"NS(=O)(=O)c1cc(NC(=O)Cc2ccccc2Cl)ccc1Oc1ccccn1 [Example 013, 2-(2-Chlorophenyl)-N-[4-(pyridin-2-yloxy)-3-sulfamoylphenyl]acetamide]"
> 16000,25,–,85,–,70,"NS(=O)(=O)c1cc(NC(=O)Cc2ccccc2Cl)ccc1Oc1ccccc1 [Example 014, 2-(2-Chlorophenyl)-N-(4-phenoxy-3-sulfamoylphenyl)acetamide]"
805,44,61,86,55,65,"NC(=O)c1cccc(Oc2ccc(NC(=O)Cc3ccccc3Cl)cc2S(N)(=O)=O)c1 [Example 017, 3-(4-{[(2-Chlorophenyl)acetyl]amino}-2-sulfamoylphenoxy)benzamide]"
–,50,–,–,–,–,"NS(=O)(=O)c1cc(NC(=O)Cc2ccccc2Cl)ccc1Oc1cncc(Cl)c1 [Example 029, 2-(2-Chlorophenyl)-N-{4-[(5-chloropyridin-3-yl)oxy]-3-sulfamoylphenyl}acetamide]"
> 50000,54,241,89,460,90,"NS(=O)(=O)c1cc(NC(=O)Cc2ccccc2Cl)ccc1Oc1ccc(-n2ccnc2)cc1 [Example 042, 2-(2-Chlorophenyl)-N-{4-[4-(1H-imidazol-1-yl)phenoxy]-3-sulfamoylphenyl}acetamide]"
1750,66,35,88,33,98,"NS(=O)(=O)c1cc(NC(=O)Cc2ccccc2Cl)ccc1OCc1ccccc1F [Example 137, 2-(2-Chlorophenyl)-N-{4-[(2-fluorobenzyl)oxy]-3-sulfamoylphenyl}acetamide]"
–,41,–,–,–,–,"NS(=O)(=O)c1cc(NC(=O)Cc2ccccc2Cl)ccc1Oc1cccc(Cl)c1 [Example 187, N-[4-(3-Chlorophenoxy)-3-sulfamoylphenyl]-2-(2-chlorophenyl)acetamide]"
> 16000,25,19,73,–,–,"COC(=O)c1ccccc1Oc1ccc(NC(=O)Cc2ccccc2Cl)cc1S(N)(=O)=O [Example 272, Methyl 2-(4-{[(2-chlorophenyl)acetyl]amino}-2-sulfamoylphenoxy)benzoate]"
149,45,18,78,–,–,"COC(=O)c1ccc(Oc2ccc(NC(=O)Cc3ccccc3Cl)cc2S(N)(=O)=O)cc1 [Example 273, Methyl 4-(4-{[(2-chlorophenyl)acetyl]amino}-2-sulfamoylphenoxy)benzoate]"
–,44,–,–,–,–,"CC(C)(O)c1ccccc1Oc1ccc(NC(=O)Cc2ccccc2Cl)cc1S(N)(=O)=O [Example 275, 2-(2-Chlorophenyl)-N-{4-[2-(2-hydroxypropan-2-yl)phenoxy]-3-sulfamoylphenyl}acetamide]"

# Further lines, the molecule ahead of its results:
Compound,IC50 [1] [nM],mouse P2X4 Assay B avg Efficacy [1] [%],IC50 [2] [nM],Emax [2] [%],IC50 [3] [nM],Emax [3] [%]
"NS(=O)(=O)c1cc(NC(=O)Cc2ccccc2Cl)ccc1Oc1cnc(Cl)c(Cl)c1 [Example 036, 2-(2-Chlorophenyl)-N-{4-[(5,6-dichloropyridin-3-yl)oxy]-3-sulfamoylphenyl}acetamide]",> 50000,15,106,81,68,79
"NS(=O)(=O)c1cc(NC(=O)Cc2cccc(F)c2Cl)ccc1Oc1cccc(Cl)c1 [Example 098, 2-(2-Chloro-3-fluorophenyl)-N-[4-(3-chlorophenoxy)-3-sulfamoylphenyl]acetamide]",387,69,7,95,25,57
"NS(=O)(=O)c1cc(NC(=O)Cc2cc(F)ccc2Cl)ccc1Oc1cccc(Cl)c1 [Example 099, 2-(2-Chloro-5-fluorophenyl)-N-[4-(3-chlorophenoxy)-3-sulfamoylphenyl]acetamide]",808,67,168,77,22,55
"NS(=O)(=O)c1cc(NC(=O)Cc2c(F)cccc2Cl)ccc1Oc1cccc(Cl)c1 [Example 100, 2-(2-Chloro-6-fluorophenyl)-N-[4-(3-chlorophenoxy)-3-sulfamoylphenyl]acetamide]",–,43,–,–,–,–
"NS(=O)(=O)c1cc(NC(=O)Cc2c(Cl)cccc2Cl)ccc1Oc1cccc(Cl)c1 [Example 104, N-[4-(3-Chlorophenoxy)-3-sulfamoylphenyl]-2-(2,6-dichlorophenyl)acetamide]",604,59,–,78,–,60
"NS(=O)(=O)c1cc(NC(=O)Cc2ccccc2)ccc1OCc1ccccc1 [Example 146, N-[4-(Benzyloxy)-3-sulfamoylphenyl]-2-phenylacetamide]",> 50000,7,–,–,314,71
"NS(=O)(=O)c1cc(NC(=O)Cc2ccccn2)ccc1Oc1cccc(Cl)c1 [Example 185, N-[4-(3-Chlorophenoxy)-3-sulfamoylphenyl]-2-(pyridin-2-yl)acetamide]",> 16000,22,–,–,567,77
"CC(C(=O)Nc1ccc(Oc2cccc(Cl)c2)c(S(N)(=O)=O)c1)c1c(F)cccc1Cl (centres unmarked) [Example 258, 2-(2-Chloro-6-fluorophenyl)-N-[4-(3-chlorophenoxy)-3-sulfamoylphenyl]propanamide]",260,52,779,76,–,–
"Cc1cc(NC(=O)Cc2ccccc2Cl)cc(S(N)(=O)=O)c1Oc1cccc(Cl)c1 [Example 270, N-[4-(3-Chlorophenoxy)-3-methyl-5-sulfamoylphenyl]-2-(2-chlorophenyl)acetamide]",1240,44,104,94,–,–
"Cc1cc(NC(=O)Cc2ccccc2)cc(S(N)(=O)=O)c1Oc1cccc(Cl)c1 [Example 271, N-[4-(3-Chlorophenoxy)-3-methyl-5-sulfamoylphenyl]-2-phenylacetamide]",> 16000,31,81,84,–,–
